Measured values: paper PMC3285241 (ACS chemical neuroscience, 2011)
Where two headings read alike, the source gives them in different places.

Key:
[1] = no reference given; cited from earlier work
[2] = target: Cav3.2 channel expressed in HEK293 cells (Homo sapiens, UniProt O95180); assay: T-type calcium channel cell-based FDSS Ca2+ flux
Cav3.2 = Cav3.2 (Homo sapiens, UniProt O95180); assay: Cav3.2 IonWorks Quattro population patch clamp electrophysiology; assay type: cell-based; conditions: Cav3 subtype not stated
sodium channel site 2 = assay: Ricerca Lead Profiling Screen, sodium channel site 2; assay type: binding; conditions: 10 μM
[3] = system: haloperidol-induced catalepsy in rats; assay: Haloperidol-induced catalepsy; assay type: in vivo, rat; conditions: 1, 3, 10 and 30 mg/kg p.o.; haloperidol 0.75 mg/kg; comparable to A2A inhibitor 56.6 mg/kg p.o.
[4] = system: 68 GPCRs, ion channels and transporters; assay: Ricerca Lead Profiling Screen; conditions: 10 μM; significant = inhibition of radio ligand binding > 50%
P450 2C9 = P450 2C9 (Homo sapiens, UniProt P11712); assay: P450 inhibition 2C9
[5] = system: rebound burst activity in STN neurons; assay: Brain slice current clamp, rebound burst activity in STN neurons; assay type: cell-based, rat
Cav3.3 = Cav3.3 (Homo sapiens, UniProt Q9P0X4); assay: Cav3.3 IonWorks Quattro population patch clamp electrophysiology; assay type: cell-based
in vitro [6] = conditions: human, liver microsomes, pH 7.4
in vitro [7] = conditions: rat, liver microsomes, pH 7.4
[8] = Brain and plasma concentrations across the catalepsy dose range; assay type: in vivo; conditions: rat
[9] = Intrinsic clearance in rat liver microsomes; conditions: obtained from rat liver microsomes
in vivo = conditions: male, Sprague-Dawley, rat, plasma, iv, 1 mg/kg
in vitro [10] = conditions: rat, plasma, pH 7.4
[11] = system: T-type calcium currents in STN neurons; assay: Brain slice voltage clamp, T-type calcium current in STN neurons; assay type: cell-based, rat
hERG = hERG (Homo sapiens, UniProt Q12809); assay: Ricerca Lead Profiling Screen, hERG; assay type: binding
[12] = Plasma-brain exposure profile PK study; assay type: in vivo; conditions: male, Sprague-Dawley, rat, intraperitoneal, 10 mg/kg
P450 1A2 = target: T1, P450 1A2 (Homo sapiens, UniProt P05177); assay: P450 inhibition 1A2
T1 sequence (P05177 1-516): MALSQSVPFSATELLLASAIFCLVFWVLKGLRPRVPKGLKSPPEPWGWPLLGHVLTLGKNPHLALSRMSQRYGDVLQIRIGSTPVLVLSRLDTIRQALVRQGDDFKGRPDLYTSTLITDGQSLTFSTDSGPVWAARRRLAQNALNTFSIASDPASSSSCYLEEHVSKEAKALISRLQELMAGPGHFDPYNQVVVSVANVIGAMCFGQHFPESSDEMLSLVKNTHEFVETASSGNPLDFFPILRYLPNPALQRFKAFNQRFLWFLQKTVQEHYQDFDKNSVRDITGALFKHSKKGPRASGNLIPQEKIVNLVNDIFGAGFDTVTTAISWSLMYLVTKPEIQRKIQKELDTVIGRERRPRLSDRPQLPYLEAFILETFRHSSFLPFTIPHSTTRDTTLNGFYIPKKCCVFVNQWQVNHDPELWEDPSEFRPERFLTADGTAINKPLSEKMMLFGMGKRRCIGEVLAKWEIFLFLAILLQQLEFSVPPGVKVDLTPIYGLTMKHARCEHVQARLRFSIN

sigma 1 = sigma 1 (Homo sapiens, UniProt Q99720); assay: Ricerca Lead Profiling Screen, sigma 1; assay type: binding; conditions: 10 μM
in vitro [13] = conditions: human, plasma, pH 7.4
[14] = system: low threshold spike (LTS) in STN neurons; assay: Brain slice current clamp, low threshold spike; assay type: cell-based, rat; conditions: 3 uM with 0.5 uM TTX, n = 5; control 18.1 ± 2.2 mV
L-type calcium channels = assay: Ricerca Lead Profiling Screen, L-type calcium channel; assay type: binding; conditions: @10 μM
N-type calcium channels = N-type calcium channels (Rattus norvegicus, UniProt Q02294); assay: Ricerca Lead Profiling Screen, N-type calcium channel; assay type: binding; conditions: read-out: % inhibition, N-type calcium channels
P450 2D6 = P450 2D6 (Homo sapiens, UniProt P10635); assay: P450 inhibition 2D6
[15] = read-out: IC50 in Ca2+ fluorescence assay, Cav3.2 HEK293, full CRC

Chain of Cav3.2 channel expressed in HEK293 cells (O95180 whole entry): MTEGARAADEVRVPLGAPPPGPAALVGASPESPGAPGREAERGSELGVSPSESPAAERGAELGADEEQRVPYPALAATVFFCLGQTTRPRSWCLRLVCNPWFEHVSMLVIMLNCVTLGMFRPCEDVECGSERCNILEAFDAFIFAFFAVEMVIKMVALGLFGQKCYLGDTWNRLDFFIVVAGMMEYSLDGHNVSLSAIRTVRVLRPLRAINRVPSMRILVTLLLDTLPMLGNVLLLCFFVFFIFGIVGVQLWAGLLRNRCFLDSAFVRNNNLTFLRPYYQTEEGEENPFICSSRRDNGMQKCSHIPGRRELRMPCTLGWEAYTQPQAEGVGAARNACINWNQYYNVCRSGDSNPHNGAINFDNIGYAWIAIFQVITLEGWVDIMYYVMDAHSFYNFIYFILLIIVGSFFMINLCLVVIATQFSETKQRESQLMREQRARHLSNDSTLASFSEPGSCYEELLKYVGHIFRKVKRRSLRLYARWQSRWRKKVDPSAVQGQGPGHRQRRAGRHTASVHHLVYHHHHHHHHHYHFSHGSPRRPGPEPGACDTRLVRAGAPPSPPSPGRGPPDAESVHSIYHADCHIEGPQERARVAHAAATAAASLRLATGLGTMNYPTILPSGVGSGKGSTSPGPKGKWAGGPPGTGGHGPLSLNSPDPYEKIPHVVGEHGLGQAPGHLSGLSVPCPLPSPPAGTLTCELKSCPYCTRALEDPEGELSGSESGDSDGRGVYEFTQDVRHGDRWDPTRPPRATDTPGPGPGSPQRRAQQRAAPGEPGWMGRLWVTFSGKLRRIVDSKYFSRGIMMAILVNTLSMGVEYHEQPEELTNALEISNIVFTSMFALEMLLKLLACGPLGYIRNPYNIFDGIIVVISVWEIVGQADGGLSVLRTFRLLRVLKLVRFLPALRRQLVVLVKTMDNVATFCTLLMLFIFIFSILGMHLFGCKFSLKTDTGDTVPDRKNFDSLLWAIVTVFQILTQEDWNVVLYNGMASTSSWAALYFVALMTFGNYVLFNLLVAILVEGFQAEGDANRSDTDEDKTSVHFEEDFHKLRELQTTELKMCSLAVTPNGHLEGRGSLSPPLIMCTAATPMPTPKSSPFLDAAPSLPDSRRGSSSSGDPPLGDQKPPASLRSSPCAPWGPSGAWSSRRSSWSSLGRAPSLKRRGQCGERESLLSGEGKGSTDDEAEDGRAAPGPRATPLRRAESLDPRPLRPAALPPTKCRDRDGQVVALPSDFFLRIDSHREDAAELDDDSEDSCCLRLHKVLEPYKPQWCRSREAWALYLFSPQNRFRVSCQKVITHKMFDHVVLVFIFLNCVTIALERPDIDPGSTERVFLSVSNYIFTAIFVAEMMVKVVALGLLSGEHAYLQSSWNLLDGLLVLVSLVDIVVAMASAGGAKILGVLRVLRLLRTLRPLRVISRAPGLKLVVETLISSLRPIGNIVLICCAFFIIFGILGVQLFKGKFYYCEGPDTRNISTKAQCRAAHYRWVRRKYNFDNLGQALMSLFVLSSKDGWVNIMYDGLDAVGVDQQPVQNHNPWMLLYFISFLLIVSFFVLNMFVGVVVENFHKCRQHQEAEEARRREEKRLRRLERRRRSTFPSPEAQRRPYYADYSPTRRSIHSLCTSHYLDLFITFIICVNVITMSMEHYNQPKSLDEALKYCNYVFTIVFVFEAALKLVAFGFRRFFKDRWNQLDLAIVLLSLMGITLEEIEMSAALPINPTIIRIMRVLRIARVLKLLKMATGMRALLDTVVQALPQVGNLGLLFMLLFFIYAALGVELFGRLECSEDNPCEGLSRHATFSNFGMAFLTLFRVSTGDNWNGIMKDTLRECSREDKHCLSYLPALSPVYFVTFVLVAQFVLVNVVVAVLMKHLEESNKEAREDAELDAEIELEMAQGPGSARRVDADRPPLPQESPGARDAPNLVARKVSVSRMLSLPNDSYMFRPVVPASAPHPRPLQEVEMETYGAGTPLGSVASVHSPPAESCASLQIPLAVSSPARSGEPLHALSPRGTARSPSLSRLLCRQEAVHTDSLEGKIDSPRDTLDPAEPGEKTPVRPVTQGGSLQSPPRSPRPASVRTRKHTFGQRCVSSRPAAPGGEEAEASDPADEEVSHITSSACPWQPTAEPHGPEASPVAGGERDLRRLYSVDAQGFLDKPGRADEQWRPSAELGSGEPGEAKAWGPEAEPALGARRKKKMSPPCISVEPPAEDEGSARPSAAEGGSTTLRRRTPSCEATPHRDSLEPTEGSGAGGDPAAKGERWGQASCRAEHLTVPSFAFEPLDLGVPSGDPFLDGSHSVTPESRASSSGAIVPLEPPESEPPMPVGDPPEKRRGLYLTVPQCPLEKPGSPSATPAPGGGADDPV
Chain of P450 2D6 (P10635 whole entry): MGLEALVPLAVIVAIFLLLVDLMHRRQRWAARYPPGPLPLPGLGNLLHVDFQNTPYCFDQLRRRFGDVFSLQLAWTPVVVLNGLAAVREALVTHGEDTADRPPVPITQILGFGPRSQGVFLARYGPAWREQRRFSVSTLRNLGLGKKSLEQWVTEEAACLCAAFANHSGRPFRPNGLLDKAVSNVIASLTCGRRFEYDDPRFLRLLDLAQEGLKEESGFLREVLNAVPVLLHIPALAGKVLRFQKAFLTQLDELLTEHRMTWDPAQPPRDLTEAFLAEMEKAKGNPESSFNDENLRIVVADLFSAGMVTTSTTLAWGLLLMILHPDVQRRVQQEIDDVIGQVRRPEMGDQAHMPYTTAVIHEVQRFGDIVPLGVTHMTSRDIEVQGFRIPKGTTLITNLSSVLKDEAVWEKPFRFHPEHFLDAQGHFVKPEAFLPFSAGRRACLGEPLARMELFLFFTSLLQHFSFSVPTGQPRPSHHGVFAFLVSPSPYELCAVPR
Chain of sigma 1 (Q99720 whole entry): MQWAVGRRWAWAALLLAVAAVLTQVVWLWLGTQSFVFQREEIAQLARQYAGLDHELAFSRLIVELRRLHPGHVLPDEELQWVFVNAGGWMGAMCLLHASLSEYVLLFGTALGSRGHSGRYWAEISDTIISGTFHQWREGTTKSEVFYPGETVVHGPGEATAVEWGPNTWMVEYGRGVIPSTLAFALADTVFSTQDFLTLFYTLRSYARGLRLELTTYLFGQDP
Chain of hERG (Q12809 whole entry): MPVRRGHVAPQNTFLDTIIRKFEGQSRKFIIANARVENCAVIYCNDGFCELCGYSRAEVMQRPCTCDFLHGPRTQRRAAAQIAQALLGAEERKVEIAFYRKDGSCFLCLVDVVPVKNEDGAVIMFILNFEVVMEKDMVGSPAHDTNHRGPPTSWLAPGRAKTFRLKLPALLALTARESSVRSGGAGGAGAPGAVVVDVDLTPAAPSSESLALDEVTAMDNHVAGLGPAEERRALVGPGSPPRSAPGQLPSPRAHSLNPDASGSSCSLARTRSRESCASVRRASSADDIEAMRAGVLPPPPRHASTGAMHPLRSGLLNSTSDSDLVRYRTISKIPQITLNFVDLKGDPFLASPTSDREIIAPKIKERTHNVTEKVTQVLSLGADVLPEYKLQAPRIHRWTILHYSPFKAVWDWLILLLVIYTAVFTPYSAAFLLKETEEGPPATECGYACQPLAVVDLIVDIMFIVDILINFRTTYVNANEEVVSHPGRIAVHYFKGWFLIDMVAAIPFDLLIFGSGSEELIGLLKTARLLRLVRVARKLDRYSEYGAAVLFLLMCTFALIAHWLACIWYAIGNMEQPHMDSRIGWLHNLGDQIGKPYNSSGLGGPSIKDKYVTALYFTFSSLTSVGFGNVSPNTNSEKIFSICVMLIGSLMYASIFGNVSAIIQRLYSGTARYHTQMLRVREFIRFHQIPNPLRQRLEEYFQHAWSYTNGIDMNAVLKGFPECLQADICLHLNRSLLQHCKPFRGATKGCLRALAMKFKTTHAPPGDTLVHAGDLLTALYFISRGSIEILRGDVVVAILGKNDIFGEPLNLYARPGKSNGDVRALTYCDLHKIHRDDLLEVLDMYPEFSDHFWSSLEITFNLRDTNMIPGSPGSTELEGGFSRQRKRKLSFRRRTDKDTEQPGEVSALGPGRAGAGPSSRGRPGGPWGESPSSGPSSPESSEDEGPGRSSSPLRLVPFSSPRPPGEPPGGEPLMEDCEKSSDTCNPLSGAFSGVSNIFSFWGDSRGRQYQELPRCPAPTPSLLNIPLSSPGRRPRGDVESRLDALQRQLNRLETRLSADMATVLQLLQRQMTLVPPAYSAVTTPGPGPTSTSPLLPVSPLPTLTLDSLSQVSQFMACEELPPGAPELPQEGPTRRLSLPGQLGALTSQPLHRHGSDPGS
Chain of P450 2C9 (P11712 whole entry): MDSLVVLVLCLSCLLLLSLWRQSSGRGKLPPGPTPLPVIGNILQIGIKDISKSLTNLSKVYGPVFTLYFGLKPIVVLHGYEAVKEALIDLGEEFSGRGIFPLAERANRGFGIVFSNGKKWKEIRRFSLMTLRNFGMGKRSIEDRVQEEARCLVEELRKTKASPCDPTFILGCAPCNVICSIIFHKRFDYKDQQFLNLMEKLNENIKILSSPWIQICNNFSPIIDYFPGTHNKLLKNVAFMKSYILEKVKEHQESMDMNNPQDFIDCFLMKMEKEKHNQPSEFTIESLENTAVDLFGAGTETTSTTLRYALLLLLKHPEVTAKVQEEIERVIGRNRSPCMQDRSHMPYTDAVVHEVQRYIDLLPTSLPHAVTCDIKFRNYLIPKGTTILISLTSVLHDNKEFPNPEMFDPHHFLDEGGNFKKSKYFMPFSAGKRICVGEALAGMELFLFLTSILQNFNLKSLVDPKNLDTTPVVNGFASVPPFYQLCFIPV
Chain of Cav3.2 (O95180 whole entry): as the sequence (O95180 whole entry) above

In the case of `COCC(=O)O[C@]1(CCN(C)CCCc2nc3ccccc3[nH]2)CCc2cc(F)ccc2[C@@H]1C(C)C` [compound 3, mibefradil], the “Penetration into CNS” value [1] is listed as “poor penetration into CNS”.

With `CC(C)(C)Cc1nnc(NC(=O)COc2ccc(Cl)cc2Cl)o1` [compound 18] the IC50 [2, 15] was 0.81 µM and the “Potency in patch EP relative to Ca2+ fluorescence, in words” value (Cav3.2) was “significant right-shift in potency”.

With `CC(C)(C)CCN1CCC[C@@H](NC(=O)COc2ccc(F)cc2Cl)C1` [CID45115614] the “T-type Ca2+ channel inhibition, result in words” value ([2]; 3-amino piperidine library) was “devoid of activity”.

For `CC(C)(C)CCN1CC2C(CNC(=O)c3cc(Cl)cc(Cl)c3)C2C1` (stereo not shown) [ML218, 3,5-dichloro-N-((3-(3,3-dimethylbutyl)-3-azabicyclo[3.1.0]hexan-6-yl)methyl)benzamide], the “Binding to sodium channel site 2” value (sodium channel site 2) was “significantly bind”, the “Reversal of haloperidol-induced catalepsy” value [3] was “reversed cataleptic behavior” and the “Number of targets significantly bound in 68-assay panel” value [4] was “only significantly bind two targets”. The IC50 (P450 2C9) was greater than 30 µM, the IC50 [2] was 0.15 µM and the “Depression of rebound burst activity” value ([5]; 3 μM, -100 pA followed by depolarizing current) was greater than 60%. The “Number of rebound spikes” value ([5]; 3 uM, n = 6, control 16.0 ± 2.8 spikes/burst) was 5.7 ± 0.5 spikes/burst, the IC50 (Cav3.3) was 0.274 µM and the CLint scaled at 1 μM (in vitro [6]) was 12.7 mL/min/kg. The CLint scaled at 1 μM (in vitro [7]) was 115 mL/min/kg, the “[brain]” value ([8]; 3 mg/kg p.o.) was 1.66 µM and the “[plasma]” value ([8]; 3 mg/kg p.o.) was 98 nM. The “[brain]” value ([8]; 10 mg/kg p.o.) was 5.03 µM, the “[plasma]” value ([8]; 10 mg/kg p.o.) was 282 nM and the “[brain]” value ([8]; 30 mg/kg p.o.) was 17.7 µM. For the same compound, the “[plasma]” value ([8]; 30 mg/kg p.o.) was 1200 nM, the “predicted hepatic clearance CLHEP” value [9] was 43 mL/min/kg and the MRT (in vivo) was roughly 7 h. It also gave a clearance (in vivo) of 56 mL/min/kg, a half-life (in vivo) of 7 h and a fraction unbound at 4 h (in vitro [10]) of 0.091. The “T-currents, % of the control value” ([11]; 3 uM, n = 7) was 45.1 ± 5.1%, the “Reduction of T-type Ca2+ current” value ([11]; 3 μM, voltage clamp, bath application) was ~ 45% and the inhibition at 10 µM (hERG) was 48%. The Kp [12] was 7.4, the IC50 (P450 1A2) was 10.8 µM and the “Binding to sigma 1” value (sigma 1) was “significantly bind”. The fraction unbound at 4 h (in vitro [13]) was 0.033, the “Amplitude of LTS” value [14] was 8.7 ± 2.1 mV and the “% inhibition, L-type calcium channels” value (L-type calcium channels) was 17%. For the same compound, the inhibition at 10 µM (N-type calcium channels) was 49% and the IC50 (P450 2D6) was 1.7 µM.

`CC(C)(C)CCN1CCC[C@H](NC(=O)COc2ccc(F)cc2Cl)C1` [compound 23] showed an IC50 [2, 15] of 2.4 µM.
